Data published in ChEMBL document CHEMBL6121066, “Structure-Activity Relationship Studies of DNA Methyltransferase 1 Monovalent Degraders” (J Med Chem, 2025).
Active and inactive are the calls of the source. The calls are words filed in the database; no cut-off is given here.

Experiments:
[1] = biological target: Protein arginine N-methyltransferase 1 (Homo sapiens) (UniProt Q99873); assay: Inhibition of human PRMT1 using histone H4 and SAM as substrate at 1 uM by radioisotope-based MT HotSpot assay relative to control
Chain of Protein arginine N-methyltransferase 1 (Homo sapiens) (Q99873 whole entry, looked up): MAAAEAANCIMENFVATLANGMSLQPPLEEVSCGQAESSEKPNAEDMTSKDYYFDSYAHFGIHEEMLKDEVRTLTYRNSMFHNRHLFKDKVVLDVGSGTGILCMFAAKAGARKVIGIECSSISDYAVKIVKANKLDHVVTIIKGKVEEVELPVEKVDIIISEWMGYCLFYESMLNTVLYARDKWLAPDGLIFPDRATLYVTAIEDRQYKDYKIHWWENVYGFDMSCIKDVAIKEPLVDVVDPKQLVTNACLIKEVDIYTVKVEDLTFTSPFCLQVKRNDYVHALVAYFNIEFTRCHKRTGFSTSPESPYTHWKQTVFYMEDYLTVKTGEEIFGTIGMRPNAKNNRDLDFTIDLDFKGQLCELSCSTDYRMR

[2] = biological target: Protein arginine N-methyltransferase 6 (Homo sapiens) (UniProt Q96LA8); assay: Inhibition of human PRMT6 using GST-GAR and SAM as substrate at 1 uM by radioisotope-based MT HotSpot assay relative to control
Chain of Protein arginine N-methyltransferase 6 (Homo sapiens) (Q96LA8 whole entry, looked up): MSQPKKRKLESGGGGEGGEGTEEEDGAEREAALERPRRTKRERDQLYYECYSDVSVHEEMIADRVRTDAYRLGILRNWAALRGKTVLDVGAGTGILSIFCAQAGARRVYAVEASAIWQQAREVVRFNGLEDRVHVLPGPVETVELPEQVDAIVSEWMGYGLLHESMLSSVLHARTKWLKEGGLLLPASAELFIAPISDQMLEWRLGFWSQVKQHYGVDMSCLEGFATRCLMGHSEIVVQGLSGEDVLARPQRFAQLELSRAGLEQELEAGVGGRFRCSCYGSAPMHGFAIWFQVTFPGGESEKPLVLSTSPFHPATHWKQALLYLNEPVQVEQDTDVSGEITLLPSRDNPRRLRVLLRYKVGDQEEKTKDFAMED

[3] = system: HCT-116; assay: Induction of molecular glue effect mediated DNMT3B degradation in human HCT-116 cells assessed as reduction in DNMT3B protein level at 500 nM incubated for 24 hrs by Western blot analysis; assay type: cell-based
[4] = system: HCT-116; assay: Induction of molecular glue effect mediated DNMT1 degradation in human HCT-116 cells assessed as reduction in DNMT1 protein level at 100 nM preincubated with MLN4924 for 2 hrs followed by compound addition and measured after 24 hrs by Western blot analysis; assay type: cell-based

inhibition [1]: < 20%
inhibition [2]: < 20%
Structure (SMILES): CCc1c(C#N)c(SC(C(N)=O)c2ccccc2)nc(N(C)CC(=O)NC)c1C#N (centres undefined)
Activity [3]: inactive
Activity [4]: Active
